Where two headings read alike, the source gives them in different places.
What was measured:
[1] = tested on: subjects with relapsed or recurrent NSCLC; test: Clinical Study XL-647-203 (Phase 2, relapsed or recurrent NSCLC); type: in vivo, human; conditions: n=41
Excerpt: Study XL-647-203: Subjects (n=41) with relapsed or recurrent NSCLC (Stage IIIB or IV) with documented progressive disease after benefit from single agent treatment with erlotinib or gefitinib or with a known EGFR T790M mutation were enrolled.

[2] = biological target: T1, Potassium Channel, Ca2+ Act., VS (Homo sapiens, UniProt Q12791); test: NovaScreen assay; type: binding; conditions: read-out: Inhibition, 10 μM XL-647
T1 construct: NovaScreen
T1 sequence (Q12791 whole entry): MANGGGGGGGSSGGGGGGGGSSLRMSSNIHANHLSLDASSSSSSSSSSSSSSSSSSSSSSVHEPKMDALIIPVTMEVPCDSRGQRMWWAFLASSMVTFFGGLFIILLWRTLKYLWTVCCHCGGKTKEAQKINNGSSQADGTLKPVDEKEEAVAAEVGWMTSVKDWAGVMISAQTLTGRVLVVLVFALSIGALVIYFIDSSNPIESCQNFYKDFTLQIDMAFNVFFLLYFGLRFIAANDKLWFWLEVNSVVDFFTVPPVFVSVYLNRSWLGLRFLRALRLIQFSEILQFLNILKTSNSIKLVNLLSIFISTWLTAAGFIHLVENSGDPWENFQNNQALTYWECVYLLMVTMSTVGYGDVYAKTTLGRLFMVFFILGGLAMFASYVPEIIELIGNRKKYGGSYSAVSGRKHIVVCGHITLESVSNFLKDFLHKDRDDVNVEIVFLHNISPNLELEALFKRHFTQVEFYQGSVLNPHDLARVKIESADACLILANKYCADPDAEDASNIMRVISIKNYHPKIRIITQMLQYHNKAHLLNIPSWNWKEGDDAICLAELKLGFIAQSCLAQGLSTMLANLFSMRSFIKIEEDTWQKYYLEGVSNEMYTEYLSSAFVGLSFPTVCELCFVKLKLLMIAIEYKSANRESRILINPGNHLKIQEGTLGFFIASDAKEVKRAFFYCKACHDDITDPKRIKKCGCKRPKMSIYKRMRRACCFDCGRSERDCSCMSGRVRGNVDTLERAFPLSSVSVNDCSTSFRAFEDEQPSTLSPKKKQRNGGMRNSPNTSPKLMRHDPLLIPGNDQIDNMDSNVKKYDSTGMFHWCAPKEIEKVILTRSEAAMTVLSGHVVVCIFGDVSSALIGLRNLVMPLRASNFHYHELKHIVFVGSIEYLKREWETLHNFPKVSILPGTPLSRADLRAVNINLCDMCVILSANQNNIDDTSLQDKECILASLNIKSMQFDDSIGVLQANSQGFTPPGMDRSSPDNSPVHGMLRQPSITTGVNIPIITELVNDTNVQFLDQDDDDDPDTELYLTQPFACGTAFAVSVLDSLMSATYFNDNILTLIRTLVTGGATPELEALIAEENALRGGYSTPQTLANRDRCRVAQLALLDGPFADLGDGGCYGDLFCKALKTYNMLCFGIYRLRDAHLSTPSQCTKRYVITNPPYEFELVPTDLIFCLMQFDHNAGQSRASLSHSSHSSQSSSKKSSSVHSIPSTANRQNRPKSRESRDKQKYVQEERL

bpk mice = tested on: bpk mice
Excerpt: The BPK model of ARPKD retains the same altered location of EGFR that is seen in murine and human ADPKD. This model is therefore widely accepted as a general means for affecting the EGFR abnormality in PKD, both ARPKD and ADPKD. The BPK model arose as a spontaneous mutation in an inbred colony of BALB/c mice. Homozygous bpk mice develop massively enlarged kidneys and die of renal failure at an average postnatal age of 24 days (PN-24). […] Extra renal manifestations include biliary proliferation and ductal ectasia. Because of the recessive nature of the disease, wild type +/+ and heterozygous bpk/+ mice are phenotypically normal. The primary measurement used in these studies is a comparison of the kidney weight to body weight ratio (KW/BW). […] Additional measurements include assessment of renal function (BUN, creatinine and MUCA) and histological evaluation of kidney size and collecting tubules-cystic index (CT-CI).
These animals were housed in Medical College of Wisconsin vivarium facilities. All animal experiments were conducted in accordance with policies of the NIH Guide for the Care and Use of Laboratory Animals and the Institutional Animal Care and Use Committee of the Medical College of Wisconsin.
Animals were treated from PN-7 through PN-21 and evaluated for extent of disease. The identity of […] animals can be readily determined post-mortem by the presence of greatly enlarged kidneys. On PN-21, the study was terminated and animals were sacrificed. The mass of each animal was determined. Both kidneys from each animal were excised and weighed. The kidney weight to body weight ratio (KW/BW) was determined by the following formula: KW/BW=[mass of both kidneys]/[mass of animal].
In addition, renal cystic index (CI) was calculated. Lectins specific to the proximal tubules (PTs) (lotus tetragonolobus [LTA]) and collecting tubules (CTs) (Dolichos biflorus agglutins [DBA]) were stained and used to assess severity of cystic dilations on a scale from 0-5. Renal function was assessed by obtaining BUN and creatinine levels via cardiac puncture. MUCA was measured after keeping the animals without water for 12 hrs.

[3] = tested on: H1975 human tumor xenograft; test: H1975 xenograft, tumor growth; type: in vivo; conditions: Mus musculus, NCI-H1975; qd × 14
Method: Before treatment, H1975, A431, or MDA-MB-231 cells were harvested from exponentially growing cultures, detached by brief trypsinization, washed twice in cold HBSS, resuspended in ice-cold HBSS, and implanted either s.c. (H1975, 3×10^6 cells per mouse) or i.d. (A431, 1×10^6 cells per mouse) into the dorsal hind flank or s.c. into the mammary fat pad (MDA-MB-231, 1×10^6 cells per mouse). Palpable tumors were measured by caliper twice weekly until the mean tumor weight was in the range of ˜80 to 120 mg. Tumor weight was determined by measuring perpendicular diameters with a caliper and multiplying the measurements of diameters in two dimensions: tumor volume (mm^3)/2=length (mm)×width (mm^2)/2. […] The mean tumor weight of each animal in the respective control and treatment groups was determined twice weekly during the dosing periods. […]
The response of tumors to treatment was determined by comparing the mean tumor weight of the treatment group with the appropriate control group. Percentage inhibition of tumor growth was determined with the following formula: Percentage inhibition=100×[1−(Xf−Xo)/(Yf−Yo)], where Xf and Yf are the mean tumor weights of the treatment and control groups, respectively, on day f, and Xo and Yo are the mean tumor weights of treatment and control groups respectively, on day zero (staged tumor weights after grouping)

ErbB2 = ErbB2 (Homo sapiens, UniProt P04626); test: AlphaScreen tyrosine kinase assay; type: biochemical; set-up: residues Q679-V1255 of human ErbB2, Proqinase; purchased Proqinase; conditions: ATP at Km
Sequence of ErbB2 (P04626 679-1255): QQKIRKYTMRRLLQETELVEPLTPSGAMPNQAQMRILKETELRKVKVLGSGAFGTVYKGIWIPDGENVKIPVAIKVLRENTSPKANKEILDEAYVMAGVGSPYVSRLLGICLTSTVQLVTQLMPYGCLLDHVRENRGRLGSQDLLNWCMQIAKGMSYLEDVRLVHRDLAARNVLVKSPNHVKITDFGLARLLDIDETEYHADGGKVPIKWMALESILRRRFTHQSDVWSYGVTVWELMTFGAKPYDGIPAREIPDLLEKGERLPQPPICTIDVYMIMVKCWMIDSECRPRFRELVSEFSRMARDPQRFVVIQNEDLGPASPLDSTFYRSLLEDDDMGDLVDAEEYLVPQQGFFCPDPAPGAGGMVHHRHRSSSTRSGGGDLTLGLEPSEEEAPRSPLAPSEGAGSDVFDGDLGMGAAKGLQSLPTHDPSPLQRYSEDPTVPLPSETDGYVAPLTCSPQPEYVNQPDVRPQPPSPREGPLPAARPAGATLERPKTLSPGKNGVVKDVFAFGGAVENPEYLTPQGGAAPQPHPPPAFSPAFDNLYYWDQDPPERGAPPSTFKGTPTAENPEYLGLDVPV
Excerpt: Dose-response experiments were done using 10 different inhibitor concentrations in 384-well microtiter plates. The ATP concentration used for each assay was equivalent to the Km for each kinase.
An AlphaScreen tyrosine kinase assay was used to measure ErbB2 and Flt-4 activity. Donor beads coated with streptavidin and acceptor beads coated with PY100 anti-phosphotyrosine antibody (Perkin-Elmer) were used. Biotinylated poly(Glu,Tyr) 4:1 was used as the substrate. Substrate phosphorylation was measured by luminescence following donor-acceptor bead addition followed by complex formation. Test compound, 3 μmol/L ATP, 3 nmol/L biotinylated poly(Glu,Tyr) 4:1, and 1 nmol/L ErbB2 (residues Q679-V1255 of human ErbB2, Proqinase) or Flt-4 (residues D725-R1298 of human Flt-4, Proqinase) were combined in a volume of 20 μL Assay Buffer (20 mM TrisHCl, pH 7.5, 10 mM MgCl2, 3 mM MnCl2, 1 mM DTT, 0.01% Triton) in a 384-well white, medium-binding microtiter plate (Greiner). Reaction mixtures were incubated for 1 h at room temperature. Reactions were quenched by addition of 10 μL of 15 to 30 μg/mL AlphaScreen bead suspension containing 75 mmol/L HEPES (pH 7.4), 300 mmol/L NaCl, 120 mmol/L EDTA, 0.3% bovine serum albumin, and 0.03% Tween 20. After 2 to 16 h of incubation at room temperature, plates were read using an AlphaQuest reader (Perkin-Elmer).

[4] = tested on: Adrenergic, Alpha 2, Non-selective; test: NovaScreen assay; type: binding
[5] = type: in vitro ADME; conditions: human
[6] = tested on: panel of pharmacological targets, including receptors, transporters, and enzymes; test: NovaScreen panel, overall statements; type: binding; conditions: single in vitro concentration of 10 μM
[7] = biological target: T2, panel of pharmacological targets, including receptors, transporters, and enzymes; test: NovaScreen panel, overall statements; type: binding; conditions: muscarinic receptors, α2-adrenergic receptor and dopamine transporter
T2 construct: IC50 values; other: muscarinic receptors, α2-adrenergic receptor and dopamine transporter

clinical = conditions: human, in vivo
Testosterone (cytosolic) = biological target: T3, Testosterone (cytosolic) (Homo sapiens, UniProt P10275); test: NovaScreen assay; type: binding; conditions: read-out: Inhibition, 10 μM XL-647
T3 construct: NovaScreen
T3 sequence (P10275 whole entry): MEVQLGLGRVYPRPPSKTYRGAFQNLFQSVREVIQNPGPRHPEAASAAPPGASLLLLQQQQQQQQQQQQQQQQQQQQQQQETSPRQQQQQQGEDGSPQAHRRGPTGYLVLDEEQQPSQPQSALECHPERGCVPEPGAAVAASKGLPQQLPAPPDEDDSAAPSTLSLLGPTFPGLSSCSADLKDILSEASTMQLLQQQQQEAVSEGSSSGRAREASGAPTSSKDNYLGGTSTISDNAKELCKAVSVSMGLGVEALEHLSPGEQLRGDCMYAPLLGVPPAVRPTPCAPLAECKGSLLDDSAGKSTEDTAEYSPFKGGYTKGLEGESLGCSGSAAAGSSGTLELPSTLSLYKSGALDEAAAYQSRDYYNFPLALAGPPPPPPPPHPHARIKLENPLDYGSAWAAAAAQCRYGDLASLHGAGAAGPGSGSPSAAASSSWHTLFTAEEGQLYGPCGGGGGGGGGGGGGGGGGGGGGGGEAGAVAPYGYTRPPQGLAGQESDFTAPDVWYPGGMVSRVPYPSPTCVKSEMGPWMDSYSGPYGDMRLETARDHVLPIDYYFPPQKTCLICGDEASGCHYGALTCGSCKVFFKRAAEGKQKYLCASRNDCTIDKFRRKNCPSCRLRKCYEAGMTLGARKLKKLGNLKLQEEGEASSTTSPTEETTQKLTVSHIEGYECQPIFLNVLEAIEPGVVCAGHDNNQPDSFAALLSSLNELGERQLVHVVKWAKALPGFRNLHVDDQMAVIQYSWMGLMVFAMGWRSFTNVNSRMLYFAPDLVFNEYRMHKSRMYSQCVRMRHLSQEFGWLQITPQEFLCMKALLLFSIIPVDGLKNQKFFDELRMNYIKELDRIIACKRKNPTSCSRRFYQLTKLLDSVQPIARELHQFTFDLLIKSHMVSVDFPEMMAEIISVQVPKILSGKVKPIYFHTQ

p-Y-VEGFR2/KDR = biological target: T4, p-Y-VEGFR2/KDR (Mus musculus, UniProt P35918); test: In vivo receptor phosphorylation, murine lung; conditions: read-out: Estimated IC50 (plasma concentration)
T4 construct: from tissue; host or cells: murine lung
T4 sequence (P35918 20-1345): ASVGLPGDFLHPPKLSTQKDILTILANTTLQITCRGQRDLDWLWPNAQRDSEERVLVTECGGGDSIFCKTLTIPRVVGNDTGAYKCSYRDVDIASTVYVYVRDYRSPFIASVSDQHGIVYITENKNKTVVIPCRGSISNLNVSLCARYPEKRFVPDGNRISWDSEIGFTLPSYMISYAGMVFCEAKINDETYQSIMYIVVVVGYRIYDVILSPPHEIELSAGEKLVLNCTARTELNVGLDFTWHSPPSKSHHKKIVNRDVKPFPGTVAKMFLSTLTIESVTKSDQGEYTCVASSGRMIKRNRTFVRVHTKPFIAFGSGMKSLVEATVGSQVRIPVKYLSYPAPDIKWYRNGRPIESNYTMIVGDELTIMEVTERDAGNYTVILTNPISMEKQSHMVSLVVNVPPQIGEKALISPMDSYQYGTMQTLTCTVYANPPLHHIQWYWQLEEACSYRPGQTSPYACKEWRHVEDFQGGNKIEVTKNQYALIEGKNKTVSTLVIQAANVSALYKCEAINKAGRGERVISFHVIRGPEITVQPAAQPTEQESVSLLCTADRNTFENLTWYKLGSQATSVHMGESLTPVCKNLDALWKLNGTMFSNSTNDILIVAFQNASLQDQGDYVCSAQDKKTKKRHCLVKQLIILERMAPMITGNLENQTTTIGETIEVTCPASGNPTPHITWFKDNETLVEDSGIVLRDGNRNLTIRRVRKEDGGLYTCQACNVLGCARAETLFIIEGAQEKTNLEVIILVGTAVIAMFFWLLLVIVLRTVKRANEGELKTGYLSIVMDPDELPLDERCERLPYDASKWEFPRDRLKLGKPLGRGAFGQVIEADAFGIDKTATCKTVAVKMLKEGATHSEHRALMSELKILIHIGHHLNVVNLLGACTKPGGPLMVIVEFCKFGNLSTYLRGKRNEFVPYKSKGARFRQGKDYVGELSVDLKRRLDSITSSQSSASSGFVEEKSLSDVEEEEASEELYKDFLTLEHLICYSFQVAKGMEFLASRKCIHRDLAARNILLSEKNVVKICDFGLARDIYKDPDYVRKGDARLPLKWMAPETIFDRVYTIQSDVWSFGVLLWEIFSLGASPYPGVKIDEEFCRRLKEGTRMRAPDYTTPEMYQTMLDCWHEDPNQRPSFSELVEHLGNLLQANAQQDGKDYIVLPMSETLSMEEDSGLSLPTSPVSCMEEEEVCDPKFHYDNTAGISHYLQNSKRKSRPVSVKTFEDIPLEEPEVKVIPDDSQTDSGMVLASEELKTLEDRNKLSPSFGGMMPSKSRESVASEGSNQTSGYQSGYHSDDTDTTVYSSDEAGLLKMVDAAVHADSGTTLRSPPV

[8] = 7.5 mg/kg/day, PN Day 21, 7.5 mg/kg/day
[9] = 7.5 mg/kg/day, PN Day 21, listed as PRIM-001, 7.5 mg/kg/day

Q: Which results are given for `COc1cc2c(Nc3ccc(Cl)c(Cl)c3F)ncnc2cc1OC[C@@H]1C[C@@H]2CN(C)C[C@@H]2C1` [XL-647, N-(3,4-dichloro-2-fluorophenyl)-7-({[(3aR,5r,6aS)-2-methyloctahydrocyclopenta[c]pyrrol-5-yl]methyl}oxy)-6-(methyloxy)quinazolin-4-amine]?
A: subjects with PR [1]: one; subjects with SD as best response [1]: 19 subjects; inhibition at 10 µM [2]: 22.7%; decrease of CT-CI (bpk mice; 7.5 mg/kg q.d.): 25%; decrease of KW/BW (bpk mice; 7.5 mg/kg q.d.): 21.5%; decrease of creatinine (bpk mice; 7.5 mg/kg q.d.): 8.3%; improvement of MUCA (bpk mice; 7.5 mg/kg q.d.): 20.1%; reduction of kidney weight (bpk mice; 7.5 mg/kg q.d.): 21.8%; decrease of BUN (bpk mice; 7.5 mg/kg q.d., 7.5 mg/kg): 42%; BUN (bpk mice; 7.5 mg/kg/day, PN Day 21): 63.43 mg/dL; CT-CI (bpk mice; 7.5 mg/kg/day, PN Day 21): 3.60; Creatinine (bpk mice; 7.5 mg/kg/day, PN Day 21): 0.44 mg/dL; MUCA (bpk mice; 7.5 mg/kg/day, PN Day 21): 560.0 mOsmol; Kidney Weight (bpk mice; [8]): 1.61 ± 0.23 g; Kidney/Body weight (bpk mice; [8]): 15.34±1.26%; Kidney Weight (bpk mice; [9]): 1.61 g; Kidney/Body weight (bpk mice; [9]): 15.34%; decrease of BUN (bpk mice; 15 mg/kg q.d.): 60.5%; decrease of CT-CI (bpk mice; 15 mg/kg q.d.): 45.8%; decrease of creatinine (bpk mice; 15 mg/kg q.d.): 25%; improvement of MUCA (bpk mice; 15 mg/kg q.d.): 66.2%; reduction of kidney weight (bpk mice; 15 mg/kg q.d.): 40.3%; BUN (bpk mice; 15 mg/kg/day, PN Day 21): 43.20 mg/dL; CT-CI (bpk mice; 15 mg/kg/day, PN Day 21): 2.60; Creatinine (bpk mice; 15 mg/kg/day, PN Day 21): 0.36 mg/dL; Kidney/Body weight (bpk mice; 15 mg/kg/day, PN Day 21): 12.36%; MUCA (bpk mice; 15 mg/kg/day, PN Day 21): 775.0 mOsmol; Kidney Weight (bpk mice; 15 mg/kg/day, PN Day 21, 15 mg/kg/day): 1.28 ± 0.09 g; Kidney Weight (bpk mice; 15 mg/kg/day, PN Day 21, listed as PRIM-001, 15 mg/kg/day): 1.28 g; ED50 [3]: 17 mg/kg; IC50 (ErbB2): 0.016 ± 0.003 µM; IC50 [4]: 1.8 µM; Inhibition, 10 μM XL-647 ([4]; 10 μM): 84.56%; protein bound [5]: 93-97.5%; interaction with the panel, in words [6]: interact with very few of the pharmacological targets; IC50 [7]: 1 to 2.7 µM; half-life (clinical): ~60 h; Tmax (clinical; po): ~4 h; inhibition at 10 µM (Testosterone (cytosolic)): 18.1%; IC50 (p-Y-VEGFR2/KDR): 1.2 µM

— patent US9364479B2, “Use of a receptor-type kinase modulator for treating polycystic kidney disease” (SYMPHONY EVOLUTION, INC., priority 2010, dated 2016)
